According to patent US20260166039A1 (SCHRÖDINGER, INC., priority 2022, published 2026):

What follows are compounds tested against T1, Wee1 kinase domain (Homo sapiens, UniProt P30291) (assay: Wee1 Kinase Biochemical Assay (ADP-Glo)). Conditions: Wee1 kinase domain, 15 uM ATP, ADP-Glo.
T1 construct: Wee1 kinase domain was purchased from Carna (catalog #05-177); purchased Carna 05-177
Description: Wee1 Kinase Biochemical Assay Protocol
Wee1 kinase domain was purchased from Carna (catalog #05-177). Wee1 kinase activity was determined with Poly(Lys,Tyr 4:1) hydrobromide as a substrate (Sigma-Aldrich) and by measuring ADP production using the ADP-Glo Kinase Assay kit (Promega) following the manufacturer's instructions. The kinase reaction was performed using the following conditions:
Buffer: 40 mM Tris-HCl, 20 mM magnesium chloride, supplemented with 0.1 mg/mL bovine serum albumin and 2 mM DTT. The final reaction mix contained 1 nM Wee1 enzyme, 15 uM ATP, and 2 ng/mL Poly(Lys,Tyr 4:1) hydrobromide substrate. The reaction time was 4 hours at 25° C.
The ADP-Glo signal was measured using the Envision plate reader and the percentage inhibition of kinase activity calculated for each inhibitor tested. Percent inhibition of Wee1 kinase activity was calculated based on the following formula.
[formula] • SSample: the signal of compounds • SHigh Ctrl: the signal of high control (DMSO) • SLow Ctrl: the signal of low control (positive control Wee1 inhibitor at saturating concentration)

T1 sequence (P30291 299-569 limits assumed): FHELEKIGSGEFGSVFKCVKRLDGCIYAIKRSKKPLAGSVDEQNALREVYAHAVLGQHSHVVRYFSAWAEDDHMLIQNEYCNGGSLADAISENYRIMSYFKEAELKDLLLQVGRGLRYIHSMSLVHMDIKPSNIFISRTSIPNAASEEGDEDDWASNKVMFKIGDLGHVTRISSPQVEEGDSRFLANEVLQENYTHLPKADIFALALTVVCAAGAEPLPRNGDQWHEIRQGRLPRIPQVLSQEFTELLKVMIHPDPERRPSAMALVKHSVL

SMILES | IC50 [nM]
CN1CCC(n2cc(Nc3ncc4c(n3)N(c3cccc(N=S(C)(C)=O)n3)[C@H]3CC(C)(C)OC[C@@]43C)cn2)C1 (stereo partly drawn) [Example 195, dimethyl((6-((4bS,8aS)-4b,7,7-trimethyl-2-((1-((R)-1-methylpyrrolidin-3-yl)-1H-pyrazol-4-yl)amino)-4b,7,8,8a-tetrahydropyrano[3′,4′:4,5]pyrrolo[2,3-d]pyrimidin-9(5H)-yl)pyridin-2-yl)imino)-16-sulfanone] | 100 to 1000
C[C@H]1COC(=O)N1c1cccc(N2c3nc(Nc4ccc(N5CC6(CN(C)C6)C5)cc4)ncc3[C@]3(C)COC(C)(C)C[C@H]23)n1 (single isomer, unassigned) [Example 354] | 10 to 100
Cc1cc(Nc2ncc3c(n2)N(c2cccc(N4C(=O)OC[C@@H]4C)n2)[C@H]2CC(C)(C)OC[C@@]32C)ccc1N1CCN(C)CC1 (single isomer, unassigned) [Example 236] | 10 to 100
C[C@H]1COC(=O)N1c1cccc(N2c3nc(Nc4cnn(C5CCNCC5)c4)ncc3[C@]3(C)COC(C)(C)C[C@H]23)n1 (single isomer, unassigned) [Example 254] | 10 to 100
CNCc1cccc(N2c3nc(Nc4ccc(N5C[C@H]6C[C@@H]5CO6)cc4)ncc3[C@]3(C)COC(C)(C)C[C@H]23)n1 (single isomer, unassigned) [Example 43] | 10 to 100
C[C@H]1COC(=O)N1c1cccc(N2c3nc(Nc4ccc(OC5CNC5)nc4)ncc3[C@]3(C)COC(C)(C)C[C@H]23)n1 (single isomer, unassigned) [Example 342] | 100 to 1000
Cc1cc(Nc2ncc3c(n2)N(c2cccc(N=S(C)(C)=O)n2)[C@H]2CC(C)(C)OC[C@@]32C)ccc1[C@@H]1CCNC1 (single isomer, unassigned) [Example 144] | 100 to 1000

Same assay, conditions: class symbols; 1 nM Wee1 enzyme, 15 uM ATP, 4 hours at 25° C.

SMILES | IC50 [nM]
CN1CC[C@@H]2CN(c3ccc(Nc4ncc5c(n4)N(c4cccc(N6CCCC6=O)n4)[C@H]4CC(C)(C)OC[C@@]54C)cc3)C[C@@H]21 [Example 687, 1-(6-((4bS,8aS)-4b,7,7-trimethyl-2-((4-((3aR,6aR)-1-methylhexahydropyrrolo[3,4-b]pyrrol-5(1H)-yl)phenyl)amino)-4b,7,8,8a-tetrahydropyrano[3′,4′:4,5]pyrrolo[2,3-d]pyrimidin-9(5H)-yl)pyridin-2-yl)pyrrolidin-2-one] | 100 to 1000
CNCc1cccc(N2c3nc(Nc4cccc(N5CCOCC5)c4)ncc3[C@]3(C)COC(C)(C)C[C@H]23)n1 (single isomer, unassigned) [Example 469] | 100 to 1000
CC1(C)C[C@@H]2N(c3cccc(C(C)(C)N)n3)c3nc(Nc4ccc(N5CCOCC5)cc4)ncc3[C@]2(C)CO1 (single isomer, unassigned) [Example 568] | 10 to 100
CC1(C)C[C@@H]2N(c3cccc(N4CCOC4=O)n3)c3nc(Nc4ccc([C@H]5CCNC5)cc4)ncc3[C@]2(C)CO1 [Example 609, 3-(6-((4bS,8aS)-4b,7,7-trimethyl-2-((4-((R)-pyrrolidin-3-yl)phenyl)amino)-4b,7,8,8a-tetrahydropyrano[3′,4′:4,5]pyrrolo[2,3-d]pyrimidin-9(5H)-yl)pyridin-2-yl)oxazolidin-2-one] | 10 to 100
CN1C[C@@H]2C[C@H]1CN2c1ccc(Nc2ncc3c(n2)N(c2cccc(C(C)(C)O)n2)[C@H]2CC(C)(C)OC[C@@]32C)cc1F (single isomer, unassigned) [Example 432] | 100 to 1000
CCn1cc(Nc2ncc3c(n2)N(c2cccc(N=S(C)(C)=O)n2)[C@@H]2CC(C)(C)OC[C@]32C)nn1 (single isomer, unassigned) [Example 516] | < 10
CN1C[C@@H]2C[C@H]1CN2c1ccc(Nc2ncc3c(n2)N(c2cccc(N4C(=O)OCC4(C)C)n2)[C@@H]2CC(C)(C)OC[C@]32C)cc1 [Example 796, 4,4-dimethyl-3-(6-((4bR,8aR)-4b,7,7-trimethyl-2-((4-((1S,4S)-5-methyl-2,5-diazabicyclo[2.2.1]heptan-2-yl)phenyl)amino)-4b,7,8,8a-tetrahydropyrano[3′,4′:4,5]pyrrolo[2,3-d]pyrimidin-9(5H)-yl)pyridin-2-yl)oxazolidin-2-one] | < 10
